{"source": "patent US9096548B2", "about": "“Pyrazine amide compounds” (Boehringer Ingelheim International GmbH, priority 2013, dated 2015)", "target": "T1, ENaC (Epithelial Sodium Channel) (Mus musculus, UniProt Q61180+Q9WU38+Q9WU39)", "T1 construct": "Mouse kidney M−1 cells were cultivated in DMEM; endogenous in cells; host or cells: Mouse kidney M-1 cells, cultivated with dexamethasone on transwell filters", "T1 sequence (Q61180 1-699)": "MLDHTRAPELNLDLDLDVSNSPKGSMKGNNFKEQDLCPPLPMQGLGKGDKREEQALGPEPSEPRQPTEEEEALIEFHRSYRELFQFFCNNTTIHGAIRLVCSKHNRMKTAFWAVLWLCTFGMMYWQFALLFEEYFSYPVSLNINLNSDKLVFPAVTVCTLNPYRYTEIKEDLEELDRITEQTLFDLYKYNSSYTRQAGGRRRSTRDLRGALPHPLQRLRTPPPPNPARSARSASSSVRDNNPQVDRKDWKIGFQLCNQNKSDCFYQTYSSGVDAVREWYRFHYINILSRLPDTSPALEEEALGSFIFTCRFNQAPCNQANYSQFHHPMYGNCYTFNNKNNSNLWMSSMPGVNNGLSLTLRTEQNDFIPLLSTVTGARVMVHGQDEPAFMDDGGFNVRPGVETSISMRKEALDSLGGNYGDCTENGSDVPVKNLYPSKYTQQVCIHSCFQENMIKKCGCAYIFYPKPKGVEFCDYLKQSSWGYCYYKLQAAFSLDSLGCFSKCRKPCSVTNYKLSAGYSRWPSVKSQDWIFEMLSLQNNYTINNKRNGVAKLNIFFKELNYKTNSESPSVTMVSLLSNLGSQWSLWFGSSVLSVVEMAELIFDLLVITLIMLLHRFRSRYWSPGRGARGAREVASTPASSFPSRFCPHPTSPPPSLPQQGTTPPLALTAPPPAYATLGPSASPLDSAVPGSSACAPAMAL", "T1 sequence (Q9WU38 1-638)": "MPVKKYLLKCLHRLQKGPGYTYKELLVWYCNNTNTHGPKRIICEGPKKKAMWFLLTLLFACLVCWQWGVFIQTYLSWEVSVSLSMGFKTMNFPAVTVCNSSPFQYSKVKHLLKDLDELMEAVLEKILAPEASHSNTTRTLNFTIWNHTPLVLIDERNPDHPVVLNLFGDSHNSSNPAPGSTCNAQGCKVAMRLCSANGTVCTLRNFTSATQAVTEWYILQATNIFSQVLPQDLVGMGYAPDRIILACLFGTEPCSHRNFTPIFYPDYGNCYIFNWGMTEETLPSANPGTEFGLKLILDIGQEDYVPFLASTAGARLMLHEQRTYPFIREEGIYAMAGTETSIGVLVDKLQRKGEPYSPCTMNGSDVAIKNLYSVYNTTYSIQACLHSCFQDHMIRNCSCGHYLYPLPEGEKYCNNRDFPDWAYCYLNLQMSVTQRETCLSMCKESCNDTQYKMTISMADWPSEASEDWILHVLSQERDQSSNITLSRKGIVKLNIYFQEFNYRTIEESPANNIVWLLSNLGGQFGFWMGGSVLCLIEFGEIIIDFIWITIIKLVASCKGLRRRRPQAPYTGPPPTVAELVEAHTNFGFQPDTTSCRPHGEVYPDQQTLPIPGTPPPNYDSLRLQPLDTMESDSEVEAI", "T1 sequence (Q9WU39 1-655)": "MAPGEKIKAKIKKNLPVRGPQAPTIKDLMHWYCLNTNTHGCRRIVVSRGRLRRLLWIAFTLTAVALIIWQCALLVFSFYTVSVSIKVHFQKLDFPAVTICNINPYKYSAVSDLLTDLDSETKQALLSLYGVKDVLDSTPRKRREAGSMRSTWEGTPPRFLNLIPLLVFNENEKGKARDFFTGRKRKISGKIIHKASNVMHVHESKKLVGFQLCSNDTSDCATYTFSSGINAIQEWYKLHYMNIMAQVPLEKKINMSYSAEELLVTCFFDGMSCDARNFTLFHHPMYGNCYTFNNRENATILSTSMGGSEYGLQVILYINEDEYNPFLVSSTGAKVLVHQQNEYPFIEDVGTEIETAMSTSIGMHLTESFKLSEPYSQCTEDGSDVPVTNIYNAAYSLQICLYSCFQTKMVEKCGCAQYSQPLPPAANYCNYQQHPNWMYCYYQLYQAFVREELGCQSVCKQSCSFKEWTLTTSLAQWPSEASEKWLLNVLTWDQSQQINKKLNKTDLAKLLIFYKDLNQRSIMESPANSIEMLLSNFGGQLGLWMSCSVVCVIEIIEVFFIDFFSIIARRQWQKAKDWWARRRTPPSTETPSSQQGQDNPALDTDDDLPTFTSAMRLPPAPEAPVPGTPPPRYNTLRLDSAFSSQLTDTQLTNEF", "assay": "Ussing Chamber assay (short circuit current, amiloride sensitive I_SC)", "assay_type": "cell-based", "conditions": "Ussing chamber, mouse kidney M-1 cells, short circuit current, read-out: IC50; for IC50: value printed in the example text with μM", "summary_of_the_method": "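Mouse kidney M-1 cells grown 10–12 days on filters with 5 μM dexamethasone, measured in Caco-2 transport buffer at 37° C under voltage clamp. Compound applied apically at 3 μM or 1-3-10 μM; 3 μM amiloride added at end. Short circuit current inhibition given as percent of amiloride effect or IC50.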", "key": {"[1]": {"conditions": "compound added to the apical solution"}}, "note": "pIC50: −log10 of the molar value. Read-outs that look alike come from different tables or passages of the source.", "data": [{"smiles": "Nc1nc(N)c(C(=O)NC2CCC[N+](CCCc3ccccc3)(CCCc3ccccc3)C2)nc1Cl", "note": "(centres unmarked) [Example 10.4, 3-[(3,5-Diamino-6-chloro-pyrazine-2-carbonyl)-amino]-1,1-bis-(3-phenyl-propyl)-piperidinium chloride]", "values": [{"measurement": "pIC50", "setting": "[1]", "value": 7.82}]}, {"smiles": "COc1ccc(OCC[N+]2(CCOc3ccc(OC)cc3)CCC[C@H](NC(=O)c3nc(Cl)c(N)nc3N)C2)cc1", "note": "[Example 10.6, 3-[(3,5-Diamino-6-chloro-pyrazine-2-carbonyl)-amino]-1,1-bis-[2-(4-methoxy-phenoxy)-ethyl]-piperidinium chloride]", "values": [{"measurement": "pIC50", "setting": "[1]", "value": 6.98}]}, {"smiles": "Nc1nc(N)c(C(=O)N[C@H]2CCC[N+](CCOc3ccccc3)(CCOc3ccccc3)C2)nc1Cl", "note": "[Example 10.7, 3-[(3,5-Diamino-6-chloro-pyrazine-2-carbonyl)-amino]-1,1-bis-[2-phenoxy-ethyl]-piperidinium chloride]", "values": [{"measurement": "pIC50", "setting": "[1]", "value": 6.80}]}, {"smiles": "N#Cc1ccc(CCC[N+]2(CCCc3ccc(C#N)cc3)CCC[C@H](NC(=O)c3nc(Cl)c(N)nc3N)C2)cc1", "note": "[Example 10.8, 1,1-Bis-[3-(4-cyano-phenyl)-propyl]-3-[(3,5-diamino-6-chloro-pyrazine-2-carbonyl)-amino]-piperidinium chloride]", "values": [{"measurement": "pIC50", "setting": "[1]", "value": 7.47}]}, {"smiles": "Nc1nc(N)c(C(=O)NC2CCC[N+](CCCc3cccc(O)c3)(CCCc3cccc(O)c3)C2)nc1Cl", "note": "(centres unmarked) [Example 10.9, 3-[(3,5-Diamino-6-chloro-pyrazine-2-carbonyl)-amino]-1,1-bis-[3-(3-hydroxy-phenyl)propyl]-piperidinium chloride]", "values": [{"measurement": "pIC50", "setting": "unit inferred", "value": 7.89}]}, {"smiles": "COC(=O)COc1cccc(CCC[N+]2(CCCc3cccc(OCC(=O)OC)c3)CCC[C@H](NC(=O)c3nc(Cl)c(N)nc3N)C2)c1", "note": "[Example 10.10, (S)-3-[(3,5-Diamino-6-chloro-pyrazine-2-carbonyl)-amino]-1,1-bis-[3-(3-methoxycarbonylmethoxy-phenyl)-propyl]-piperidinium chloride]", "values": [{"measurement": "IC50", "value": 0.025, "unit": "µM"}]}, {"smiles": "Cn1ccnc1CNC(=O)COc1cccc(CCC[N+]2(CCCc3cccc(OCC(=O)NCc4nccn4C)c3)CCC[C@H](NC(=O)c3nc(Cl)c(N)nc3N)C2)c1", "note": "[Example 10.11, (S)-3-[(3,5-Diamino-6-chloro-pyrazine-2-carbonyl)-amino]-1,1-bis-[3-(3-{[(1-methyl-1H-imidazol-2-ylmethyl)-carbamoyl]-methoxy}-phenyl)-propyl]-piperidinium hydroxide]", "values": [{"measurement": "pIC50", "setting": "unit inferred", "value": 8.15}]}, {"smiles": "CCOC(=O)C[N+]1(CCCc2ccc(OC)cc2)CCCC(NC(=O)c2nc(Cl)c(N)nc2N)C1", "note": "(centres unmarked) [Example 12, 3-[(3,5-Diamino-6-chloro-pyrazine-2-carbonyl)-amino]-1-ethoxycarbonylmethyl-1-[3-(4-methoxy-phenyl)-propyl]-piperidinium chloride]", "values": [{"measurement": "pIC50", "setting": "unit inferred", "value": 6.82}]}, {"smiles": "COc1ccc(CCC[N+]2(CC(=O)OC3CCCCC3)CCCC(NC(=O)c3nc(Cl)c(N)nc3N)C2)cc1", "note": "(centres unmarked) [Example 12.1, 1-Cyclohexyloxycarbonylmethyl-3-[(3,5-diamino-6-chloro-pyrazine-2-carbonyl)-amino]-1-[3-(4-methoxy-phenyl)-propyl]-piperidinium chloride]", "values": [{"measurement": "IC50", "value": 0.21, "unit": "µM"}]}, {"smiles": "COc1ccc(CCC[N+]2(CC(=O)O)CCCC(NC(=O)c3nc(Cl)c(N)nc3N)C2)cc1", "note": "(centres unmarked) [Example 13, 1-Carboxymethyl-3-[(3,5-diamino-6-chloro-pyrazine-2-carbonyl)-amino]-1-[3-(4-methoxy-phenyl)propyl]-piperidinium chloride]", "values": [{"measurement": "IC50", "value": "> 1", "unit": "µM"}]}, {"smiles": "COC(=O)C[N+]1(CCCc2ccc(OC)cc2)CCCC(NC(=O)c2nc(Cl)c(N)nc2N)C1", "note": "(centres unmarked) [Example 14, 3-[(3,5-Diamino-6-chloro-pyrazine-2-carbonyl)-amino]-1-methoxycarbonylmethyl-1-[3-(4-methoxy-phenyl)-propyl]-piperidinium chloride]", "values": [{"measurement": "IC50", "value": 0.137, "unit": "µM"}]}]}
